In PubChem BioAssay AID1963440 (Molecular Pharmacology Branch, DTP, NCI, 2024):
Several values for one entry are separate records, joined by “and”; a condition that tells them apart may be missing. Equal entries are not always repeated.

Test system: NCI-H1417 complex spheroids, growth % test/control
Experiment: Anticancer human tumor NCI-H1417 cell line growth inhibition [Asc];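 note: spheroids exposed to compounds for 7 days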;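 for viability, T/C: 100% = DMSO vehicle control wells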
Details: for viability, T/C: stronger effect = lower value
Procedure: Multicellular complex tumor spheroid response to apoptosis pathway targeting inhibitors Alrizomadlin, Pelcitoclax, and Dasminapant in combination with a variety of drugs and investigational agents in selected tumor cell lines
The MDM2 inhibitor alrizomadlin, the Bcl-2/Bcl-xL inhibitor pelcitoclax, and the IAPs inhibitor dasminapant were evaluated both individually and in combination with standard of care and investigational anticancer small molecules within a complex spheroid model of solid tumors. . Complex spheroids include a stromal component modeled by human endothelial cells (HUVEC) and fibroblasts modeled by human mesenchymal stem cells (MSCs). The concentration ranges selected for each drug and investigational agent were based upon clinically achievable concentrations if the clinical Cmax of the agent was known.
Compounds. The drugs and investigational agents: alrizomadlin (APG-115; NSC831270), pelcitoclax (APG-1252; NSC835773), dasminapant (APG-1387;NSC834197), TAK-243 (NSC785004), copanlisib (NSC809693), olaparib (NSC753686), talazoparib (NSC767125), cobimetinib (NSC 768068), eltanexor (KPT-8602, NSC 794443), abemaciclib (NSC 768073), sotorasib (NSC818433), adagrasib (NSC 831453), MRTX-1133 (NSC 836407), Iadademestat (ORY1001, NSC 806812), and RMC-4630 (NSC839698), were obtained from the NCI Developmental Therapeutics Program Chemical Repository. The FDA-approved anticancer drug set is available from the Developmental Therapeutics Program at https://dtp.cancer.gov/organization/dscb/obtaining/available plates.htm. […] The stock solutions were prepared in dimethyl sulfoxide (DMSO, Sigma-Aldrich, St. Louis, MO, cat. D2650) at 800-fold the tested concentration and stored at -70 degrees C prior to their use. All drugs and investigational agents were tested over a range starting from a high concentration at or near the clinical Cmax and decreasing in half-log increments. If the clinical Cmax for an agent had not been determined, the highest concentration tested was 10 microM.
The patient-derived cancer (PDC) cell lines include five colon adenocarcinomas: 186277-243-T-J2-PDC, 616215-338-R-J1-PDC, 439559-082-T-J2-PDC, 463943-066-T-J2-PDC, and 519858-162-T-J1-PDC; three pancreatic carcinomas: 323965-272-R-J2-PDC, 521955-158-R6-J3-PDC, and 521955-158-R2-J5-PDC; two uterine sarcomas: 327498-152-R-J2-PDC and 993429-296-R-J1-PDC; two rhabdomyosarcomas: 755483-174-R-J1-PDC and 772245-204-R-J1-PDC; two soft tissue sarcomas: 126254-015-R-J1-PDC and 494315-158-R-J1-PDC; two malignant fibrous histiocytomas: 317291-083-R-J1-PDC and 596521-263-R-J1-PDC; two breast carcinomas: 171881-019-R-J1-PDC and 885512-296-R-J2-PDC; and one ovarian carcinoma: 6556581-035-R-J-PDC were obtained from the NCI PDMR, (https://pdmr.cancer.gov). The established cell lines HSSY-2 synovial sarcoma (RRID:CVCL 8719), SYO-1 synovial sarcoma (RRID:CVCL_7146), MPNST malignant peripheral neural sheath tumor were obtained from the Sloan Kettering Institute. The following established cell lines were purchased from the American Type Culture Collection (ATCC, Manassas, VA), Sor the received from the NCI repository:, PANC-1 pancreatic carcinoma (CRL-1469, RRID:CVCL_0480), OVCAR-5 ovarian carcinoma (RRID:CVCL_1628), OVCAR-8 ovarian carcinoma (RRID:CVCL_1629), , MCF-7 breast carcinoma (CRL-12584, RRID:CVCL_0031), MDA-MB-231 breast carcinoma (CRL-12532, RRID:CVCL_0062), NCI-H1876 small cell lung carcinoma (CRL-5902, RRID:CVCL_1503), NCI-H510A small cell lung carcinoma (HTB-184, RRID:CVCL_1565), NCI-H1417 (CRL-5869, RRID:CVCL_1469), and NCI-H196 small cell lung carcinoma (CRL-5823, RRID:CVCL_1509). Dr. Peter Houghton (Greehey Children's Cancer Research Institute, University of Texas Health Science Center, San Antonio, TX) provided Rh-18 rhabdomyosarcoma (RRID:CVCL_1659). Pooled donor human umbilical vein endothelial cells (HUVEC, Lonza, cat. CC-2519) and human mesenchymal stem cells (hMSC, Lonza, cat. PT-2501) were purchased from Lonza (Walkersville, MD).
Cell Culture. […]

[1] = curve of first compound, second compound 0.1 µM
[2] = curve of first compound, second compound 0.316 µM
[3] = curve of first compound, second compound 1 µM
[4] = curve of first compound, second compound 3.16 µM
[5] = curve of first compound, second compound 10 µM

In the case of `Cc1nc(N2CCC3(CC2)COC(C)C3N)c(CO)nc1Sc1ccnc(N)c1Cl` (stereo unspecified) + Cc1c(S(C)(=O)=O)c(-c2cc(F)cc(N3CCN(c4ccc(NS(=O)(=O)c5ccc(NC(CCN6CCC(C(=O)OCCCP(=O)(O)O)CC6)CSc6ccccc6)c(S(=O)(=O)C(F)(F)F)c5)cc4)CC3)c2)c(-c2ccc(Cl)cc2)n1C(C)C, the IC50 [1] is reported as > 3000 nM, the IC50 [2] is reported as < 9.49 nM and the IC50 [3] is reported as < 9.49 nM. The IC50 [4] was < 9.49 nM, the IC50 [5] was < 9.49 nM and the viability, T/C (second compound 0.1 µM, first compound 0.00949 µM) was 81.4%. It also gave a viability, T/C (second compound 0.1 µM, first compound 0.03 µM) of 82%, a viability, T/C (second compound 0.1 µM, first compound 0.0949 µM) of 71.4% and a viability, T/C (second compound 0.1 µM, first compound 0.3 µM) of 64.8%. The viability, T/C (second compound 0.1 µM, first compound 0.949 µM) was 64.4%, the viability, T/C (second compound 0.1 µM, first compound 3 µM) was 52.6% and the viability, T/C (second compound 0.316 µM, first compound 0.00949 µM) was 46.9%. It also gave a viability, T/C (second compound 0.316 µM, first compound 0.03 µM) of 46.3%, a viability, T/C (second compound 0.316 µM, first compound 0.0949 µM) of 32.9% and a viability, T/C (second compound 0.316 µM, first compound 0.3 µM) of 23.9%. For the same compound, the viability, T/C (second compound 0.316 µM, first compound 0.949 µM) was 13.7%, the viability, T/C (second compound 0.316 µM, first compound 3 µM) was 12.2% and the viability, T/C (second compound 1 µM, first compound 0.00949 µM) was 12.4%. For the same compound, the viability, T/C (second compound 1 µM, first compound 0.03 µM) was 9.91%, the viability, T/C (second compound 1 µM, first compound 0.0949 µM) was 6.5% and the viability, T/C (second compound 1 µM, first compound 0.3 µM) was 3.75%. For the same compound, the viability, T/C (second compound 1 µM, first compound 0.949 µM) was 1.89%, the viability, T/C (second compound 1 µM, first compound 3 µM) was 0.84% and the viability, T/C (second compound 3.16 µM, first compound 0.00949 µM) was 2.34%. The viability, T/C (second compound 3.16 µM, first compound 0.03 µM) was 2.47%, the viability, T/C (second compound 3.16 µM, first compound 0.0949 µM) was 1.68% and the viability, T/C (second compound 3.16 µM, first compound 0.3 µM) was 1.09%. It also gave a viability, T/C (second compound 3.16 µM, first compound 0.949 µM) of 0.67%, a viability, T/C (second compound 3.16 µM, first compound 3 µM) of 0.5% and a viability, T/C (second compound 10 µM, first compound 0.00949 µM) of 2.47%. For the same compound, the viability, T/C (second compound 10 µM, first compound 0.03 µM) was 2.41%, the viability, T/C (second compound 10 µM, first compound 0.0949 µM) was 1.78% and the viability, T/C (second compound 10 µM, first compound 0.3 µM) was 1.37%. The viability, T/C (second compound 10 µM, first compound 0.949 µM) was 1.05% and the viability, T/C (second compound 10 µM, first compound 3 µM) was 1.2%.

With `O=C(c1cc(Cc2n[nH]c(=O)c3ccccc23)ccc1F)N1CCN(C(=O)C2CC2)CC1` the viability, T/C (compound 0.0316 µM) was 96.7% and 102% and 86.3%, the viability, T/C (compound 0.1 µM) was 106% and 90.7% and 91.3% and the viability, T/C (compound 0.316 µM) was 89.8% and 84.6% and 86.3%. For the same compound, the viability, T/C (compound 1 µM) was 80.9% and 84.3% and 99.2%, the viability, T/C (compound 3.16 µM) was 56.5% and 56.2% and 71% and the viability, T/C (compound 10 µM) was 38.3% and 24.6% and 36%. The IC50 (curve of compound) was 4830 nM and 4200 nM and 6310 nM.

`NC1CCC(NC2CC2c2ccccc2)CC1` (stereo unspecified) + Cc1c(S(C)(=O)=O)c(-c2cc(F)cc(N3CCN(c4ccc(NS(=O)(=O)c5ccc(NC(CCN6CCC(C(=O)OCCCP(=O)(O)O)CC6)CSc6ccccc6)c(S(=O)(=O)C(F)(F)F)c5)cc4)CC3)c2)c(-c2ccc(Cl)cc2)n1C(C)C was tested, and the IC50 [1] was > 100 nM, the IC50 [2] was < 0.316 nM and the IC50 [3] was < 0.316 nM. For the same compound, the IC50 [4] was < 0.316 nM, the IC50 [5] was < 0.316 nM and the viability, T/C (second compound 0.1 µM, first compound 0.000316 µM) was 66.5%. The viability, T/C (second compound 0.1 µM, first compound 0.001 µM) was 69%, the viability, T/C (second compound 0.1 µM, first compound 0.00316 µM) was 61.8% and the viability, T/C (second compound 0.1 µM, first compound 0.01 µM) was 65.1%. For the same compound, the viability, T/C (second compound 0.1 µM, first compound 0.0316 µM) was 65.7%, the viability, T/C (second compound 0.1 µM, first compound 0.1 µM) was 64.3% and the viability, T/C (second compound 0.316 µM, first compound 0.000316 µM) was 45.1%. For the same compound, the viability, T/C (second compound 0.316 µM, first compound 0.001 µM) was 43.2%, the viability, T/C (second compound 0.316 µM, first compound 0.00316 µM) was 34.7% and the viability, T/C (second compound 0.316 µM, first compound 0.01 µM) was 40.1%. It also gave a viability, T/C (second compound 0.316 µM, first compound 0.0316 µM) of 38.8%, a viability, T/C (second compound 0.316 µM, first compound 0.1 µM) of 38.8% and a viability, T/C (second compound 1 µM, first compound 0.000316 µM) of 12.5%. For the same compound, the viability, T/C (second compound 1 µM, first compound 0.001 µM) was 14.6%, the viability, T/C (second compound 1 µM, first compound 0.00316 µM) was 16.3% and the viability, T/C (second compound 1 µM, first compound 0.01 µM) was 11.2%. For the same compound, the viability, T/C (second compound 1 µM, first compound 0.0316 µM) was 16.2%, the viability, T/C (second compound 1 µM, first compound 0.1 µM) was 15.7% and the viability, T/C (second compound 3.16 µM, first compound 0.000316 µM) was 1.88%. It also gave a viability, T/C (second compound 3.16 µM, first compound 0.001 µM) of 1.85%, a viability, T/C (second compound 3.16 µM, first compound 0.00316 µM) of 2.09% and a viability, T/C (second compound 3.16 µM, first compound 0.01 µM) of 1.09%. The viability, T/C (second compound 3.16 µM, first compound 0.0316 µM) was 1.14%, the viability, T/C (second compound 3.16 µM, first compound 0.1 µM) was 2.64% and the viability, T/C (second compound 10 µM, first compound 0.000316 µM) was 1.53%. The viability, T/C (second compound 10 µM, first compound 0.001 µM) was 1.86%, the viability, T/C (second compound 10 µM, first compound 0.00316 µM) was 1.9% and the viability, T/C (second compound 10 µM, first compound 0.01 µM) was 1.64%. It also gave a viability, T/C (second compound 10 µM, first compound 0.0316 µM) of 2.09% and a viability, T/C (second compound 10 µM, first compound 0.1 µM) of 1.63%.

`NC1CCC(NC2CC2c2ccccc2)CC1` (stereo unspecified) was tested, and the viability, T/C (compound 0.000316 µM) was 94.2% and 90.8% and 94.6%, the viability, T/C (compound 0.001 µM) was 91.8% and 89.6% and 93.2% and the viability, T/C (compound 0.00316 µM) was 89.5% and 86.4% and 89.2%. The viability, T/C (compound 0.01 µM) was 83.2% and 78.4% and 87.9%, the viability, T/C (compound 0.0316 µM) was 89% and 84.6% and 88.3% and the viability, T/C (compound 0.1 µM) was 82.3% and 78.4% and 97.6%. The IC50 (curve of compound) was > 100 nM.

With `O=C(c1ccc(F)c(F)c1Nc1ccc(I)cc1F)N1CC(O)([C@@H]2CCCCN2)C1` the viability, T/C (compound 0.00316 µM) was 89.8% and 105% and 96.8%, the viability, T/C (compound 0.01 µM) was 99.2% and 107% and 97.3% and the viability, T/C (compound 0.0316 µM) was 84.4% and 103% and 97.9%. The viability, T/C (compound 0.1 µM) was 89% and 98.1% and 116%, the viability, T/C (compound 0.316 µM) was 88.8% and 94.5% and 97.2% and the viability, T/C (compound 1 µM) was 65.3% and 83.7% and 98.2%. The IC50 (curve of compound) was > 1000 nM.
